Test results published in patent US8686224B2, “Plant defense signal peptides” (priority 2005, dated 2014).
Entries after “also recorded” stand apart in the source; their conditions may differ.

Legend:
[1] = tested on: P. syringae pv. tomato DC3000 (Pst DC3000); assay: Pst DC3000 inoculation of Arabidopsis leaves with peptide pre-infiltration; assay type: in vivo, Pseudomonas syringae
Description: The resistance to P. irregulare requires the JA signaling pathway in Arabidopsis (Staswick et al, Plant J. 15: 747-754, 1998), and AtPep peptides induced PDF1.2, a marker gene for the JA response (Huffaker et al., Proc. Natl. Acad. Sci. USA 103: 10098-10103, Huffaker and Ryan, Proc. Natl. Acad. Sci. USA 104: 10732-10736, 2007). […] In order to examine this possibility, Arabidopsis plants were inoculated with P. syringae pv. tomato DC3000 (Pst DC3000) with or without AtPep1 pre-infiltration. Pst DC3000 was extracted from the infected leaves 4 days after infection and colony forming units (cfu/cm^2) were calculated. […] The reduction of Pst DC3000 growth was also not observed when the double mutant, pepr1-1/pepr2-1, was pre-infiltrated with AtPep1. […] Pre-infiltration of AtPep2-6 also attenuated Pst DC3000 growth to different degrees.
To assess the importance of AtPEPR1 and AtPEPR2 in the resistance to Pst DC3000 after infiltration of AtPep1, T-DNA insertional mutants were inoculated. When 1 μM AtPep1 was infiltrated into leaves one day prior to Pst DC3000 inoculation, the size of the necrotic regions were reduced in both wild type and single mutant lines, pepr1-1 and pepr2-1. […] Similar results were obtained when another set of mutant lines, pepr1-2, pepr2-2 and pepr1-2/pepr2-2, was used.

[2] = tested on: defense gene expression in excised Arabidopsis leaves; assay: Excised-leaf assay, semi-quantitative RT-PCR of gene expression; assay type: in vivo, Arabidopsis thaliana
Description: Excised-leaf assays. AtPep1 peptide dissolved in double distilled water was supplied to excised leaves of 3 to 4 week old Arabidopsis plants. Leaves were excised and the petioles were immersed in 800 μL centrifuge tubes containing either the peptide solution or distilled water, and placed in a closed clear plexiglass box containing a thin layer of water for humidity, and a small opening to allow air to enter. Boxes were incubated in a growth chamber under the plant growth conditions described above and sprayed with a fine mist of distilled water every half hour to ensure humidity and prevent wilting. To determine variations in basal levels of the AtproPep1 transcript among assays, four different leaves from four different plants were used for each treatment, and leaves supplied with either water or AtPep1 were taken from the same plants. Assays were terminated by immersing the leaves in liquid nitrogen.
Semi-quantitative RT-PCR analysis of relative gene expression levels. RNA was isolated using Trizol reagent and manufacturer's instructions (Invitrogen. Carlsbad Calif.), and 2 μg of RNA template was reverse transcribed with a RETROscript kit (Ambion, Austin Tex.). PCR reactions were carried out with ExTaq Hot Start polymerase and reagents (Fisher Scientific, Pittsburgh Pa.). The AtproPep1 forward and reverse primers with the respective sequences of 5′ […] 3′ (SEQ ID NO: 59) and 5′ […] 3′ (SEQ ID NO: 60) generated a 310 bp intron-spanning product. Primers to β-tubulin (At5g62690) of 5′ […] 3′ (SEQ ID NO: 73) and 5′ […] 3′ (SEQ ID NO: 74) generated a 681 base pair intron-spanning product. An initial denaturing/polymerase activating step of 5 minutes at 94° C. was followed by 31 repetitions of the following three steps: a thirty second denaturation phase at 94° C., a thirty second annealing period at 55.5° C., and a one minute elongation step at 72° C. The amplification program was terminated with a 10 minute final 72° C. elongation phase.
The products of each reaction were separated by electrophoresis and were visualized on a Bio Imaging System (SynGene, Frederick Md.) using GeneSnap version 6.00.26 software (SynGene, Frederick Md.). A high resolution image of the gel was analyzed using GeneTools analysis software version 3.02.00 (SynGene, Frederick Md.). Relative band intensities for each band were normalized to the β-tubulin band. A numerical ratio of amplified AtproPep1 cDNA to amplified tubulin cDNA was obtained for every sample. To calculate average values, semi-quantitative RT-PCR assays were performed in duplicate, and RNA extractions were performed in triplicate.
Analysis of gene expression using RT-PCR. Gene expression was analyzed using RT-PCR (Nishimura et al., Plant Cell 16:1365-1377, 2004).
Expression analysis of AtproPep1 in response to abiotic and biotic cues. As a first step in seeking a possible function for AtproPep1 and its encoded peptide, the basal expression level of the gene was assessed in leaves, stems, roots and flowers of Arabidopsis plants was studied using semi-quantitative RT-PCR analysis of AtproPep1 gene expression in response to treatment of leaves with MeJA, ethephon, MeSA, and AtPep1. The relative abundance of the proAtPep1 transcript was estimated from the expression of the β-tubulin gene as a control. Leaves were wounded by crushing once across the mid-vein with a hemostat. Plants were sprayed with a 250 μM solution of MeJA in 0.1% Triton X-100; with a 2 μM solution of MeSA in 0.1% Triton X-100 or with a 7 mM solution of ethephon in 0.1% Triton X-100. AtPep1 peptide (10 nM in water) was supplied through cut petioles of excised leaves. Total RNA was extracted and analyzed.
In order to determine whether AtPep1 regulates defense gene expression, we determined the fold induction of defense related genes in excised Arabidopsis leaves in response to 10 nM AtPep1 supplied through their cut petioles. […]

[3] = 1 μM one day prior, pepr1-1/pepr2-1

H-ATKVKAKQRGKEKVSSGRPGQHN-OH [AtPep1] was tested, and the “bacterial growth reduced to” value ([1]; 1 μM infiltrated one day prior to inoculation, wild type) was 1/100, the “bacterial growth reduced to” value ([1]; 1 μM one day prior, pepr1-1) was 1/25 and the “colony growth in the double mutants” value [1, 3] was “no decrease in colony growth”. The “symptom development in double mutants” value [1, 3] was “did not affect symptom development”, the “bacterial growth reduced to” value ([1]; 1 μM one day prior, pepr2-1) was 1/100 and the “size of the necrotic regions” value ([1]; 1 μM one day prior, wild type and single mutants pepr1-1 and pepr2-1) was “reduced”. The “Pst DC3000 growth in double mutant pepr1-1/pepr2-1” value ([1]; pre-infiltration) was “not observed”, the “attenuation of Pst DC3000 in fad3,7,8, npr1-1 and sid2-2 mutants” value ([1]; pre-infiltration) was “differentially diminished” and the “effect on Pst DC3000 growth compared with flg22 pre-infiltration” value ([1]; pre-infiltration, wild type) was “more effective than flg22 pre-infiltration”. The “Pst DC3000 growth in leaves after pre-infiltration” value ([1]; wild type, cfu/cm^2 4 days after infection, AtPep1 10 nM solution) was “reduced Pst DC3000 growth in leaves”, the “expression of the AtproPep1 gene” value ([2]; 10 nM through cut petioles of excised leaves, within two hours) was “induced expression” and the “expression of PDF1.2 and PR-1” value ([2]; 10 nM through cut petioles, 2 hr, wild type) was “most strongly expressed; also recorded: induced a strong expression”. The “expression of AtproPep1, PDF1.2 or PR-1 in mutants” value ([2]; 10 nM, 2 hr, triple mutant fad3-2, fad7-2, fad8 and mutant ein2-1) was “did not induce”, the “expression of LOX2 and VSP2” value ([2]; 10 nM, two hours, wild type) was “not induced” and the “expression of PR-3, PR-4 and TAT” value ([2]; 10 nM, two hours, wild type) was “expressed at lower levels”. The “expression of At5g64905, At5g64900, At5g64890 and At5g09980” value ([2]; supplied through cut petioles of excised leaves) was “expressed relatively strongly”.
